In paper PMC9065260 (Frontiers in Pharmacology, 2022):
“And” between values parts separate entries of the source, which are not always exact repeats. Equal values may be shown once.

Key:
KYSE70 cells = experiment: MTT assay for cell proliferation and cytotoxicity; type: cell-based; conditions: Homo sapiens, KYSE-70; MTT, 48 h, mean ± SD; read-out: IC50 KYSE70
Protocol: (§3) The compounds were dissolved in DMSO to make a 50 mM stock solution and were diluted to the concentration of working solutions with the complete growth medium before administration.
(§4) Cells were seeded in 96-well plates with densities of 2,200–2,500 cells/well in 100 μL. One day after seeding, the concentration of the test compounds between 0 and 50 μM, 0.1% DMSO was added to cells as control. […] After 48 h, MTT was added and incubated in the plate for 1–4 h in the incubator.

KYSE410 cells = experiment: MTT assay for cell proliferation and cytotoxicity; type: cell-based; conditions: Homo sapiens, KYSE-410; MTT, 48 h, mean ± SD; read-out: IC50 KYSE410
Protocol: as §3, §4

KYSE450 cells [1] = experiment: MTT assay for cell proliferation and cytotoxicity; type: cell-based; conditions: Homo sapiens, KYSE-450; MTT, 48 h, mean ± SD; read-out: IC50 KYSE450
Protocol: as §3, §4

H1650 cells = experiment: MTT assay for cell proliferation and cytotoxicity; type: cell-based; conditions: Homo sapiens, NCI-H1650; MTT, 48 h, mean ± SD; read-out: IC50 H1650
Protocol: as §3, §4

HCC827 cells [2] = experiment: MTT assay for cell proliferation and cytotoxicity; type: cell-based; conditions: Homo sapiens, 48 h, mean ± SD
Protocol: as §3, §4

[3] = tested on: human esophageal epithelial cell SHEE; experiment: MTT assay, toxicity against normal cells; type: cell-based; conditions: MTT, normal human esophageal epithelial cells, mean ± SD, read-out: IC50 SHEE
Protocol: Cells were seeded in 96-well plates with densities of 2,200–2,500 cells/well in 100 μL. One day after seeding, the concentration of the test compounds between 0 and 50 μM, 0.1% DMSO was added to cells as control. Approximately 2200-2500 transfected cells in 100 μL were incubated in quintuplicate in 96-well plates. After 48 h, MTT was added and incubated in the plate for 1–4 h in the incubator.

KYSE70TR cells = experiment: MTT assay, drug-resistant cell line; type: cell-based, human; conditions: Homo sapiens; MTT, paclitaxel-resistant esophageal cancer cell line; read-out: IC50 KYSE70TR
Protocol: as §3, §4

KYSE410TR cells = experiment: MTT assay, drug-resistant cell line; type: cell-based, human; conditions: Homo sapiens; MTT, paclitaxel-resistant esophageal cancer cell line; read-out: IC50 KYSE410TR
Protocol: as §3, §4

KYSE450TR cells [4] = experiment: MTT assay, drug-resistant cell line; type: cell-based, human; conditions: Homo sapiens; MTT, paclitaxel-resistant esophageal cancer cell line; read-out: IC50 KYSE450TR
Protocol: as §3, §4

H1650TR cells = experiment: MTT assay, drug-resistant cell line; type: cell-based, human; conditions: Homo sapiens; MTT, paclitaxel-resistant lung cancer cell line; read-out: IC50 H1650TR
Protocol: as §3, §4

HCC827GR cells [5] = experiment: MTT assay, drug-resistant cell line; type: cell-based, human; conditions: Homo sapiens; MTT, gefitinib-resistant lung cancer cell line; read-out: IC50 HCC827GR
Protocol: as §3, §4

KYSE450 cells [6] = experiment: Flow cytometry detection for cell apoptosis (Annexin V/PI); type: cell-based, human; conditions: 48 h
Protocol: (§1) Cell apoptosis analysis was carried out by flow cytometry using the Annexin V/PI apoptosis methods. […] The cells were harvested and incubated with 250 μL of 1 × Annexin V binding buffer containing 5 μL of PI and 5 μL of FITC Annexin V (final concentration 1.8 μg/ml, Biolegend cat: 640945) for 15 min at room temperature in the dark. Then 200 µL of 1 × binding buffer was added for flow cytometry analysis (BD FACSCalibur™ Flow Cytometer).

KYSE450TR cells [7] = experiment: as above; type: cell-based, human; conditions: 48 h
Protocol: as §1

KYSE450 cells [8] = experiment: Cell cycle analysis by flow cytometry; type: cell-based, human; conditions: 24 h
Protocol: (§5) KYSE450 and KYSE450TR cells were plated in 6-well plates with a density of 1 × 10^5 cells/well and cultured overnight to attach. […] After trypsinization treatment, the cells were collected by centrifugation. The cell pellet was re-suspended in 70% ethanol at −20°C for at least 3 h. […] Cells were re-transferred to the BD FACSCalibur™ Flow Cytometer. All analyses were performed with FlowJo software v105.3.6.

KYSE450TR cells [9] = experiment: Cell cycle analysis by flow cytometry; type: cell-based, human; conditions: 24 h
Protocol: as §5

[10] = molecular target: T1, EGFR wild-type protein (H672-E410) (Homo sapiens, UniProt P00533); experiment: Surface plasmon resonance (SPR) EGFR protein affinity; type: binding; conditions: immobilized wild-type EGFR
T1 construct: purchased Active MOTIF 31165

[11] = molecular target: T2, EGFR mutant protein (672-1210, L858R) (Homo sapiens, UniProt P00533, L858R); experiment: as above; type: binding
T2 construct: the EGFR mutant type (672-1210, L858R, Active MOTIF, cat: 81200); purchased Active MOTIF 81200
Protocol: Surface plasmon resonance experiments were carried out to evaluate the interaction between 3d with the EGFR wild-type (0.468 μg/μL, Active MOTIF, cat: 31165) and the EGFR mutant type (672-1210, L858R, Active MOTIF, cat: 81200). The interaction of erlotinib with wild-type EGFR was also studied. Biacore T-200 (GE healthcare, Waukesha, WI, United States) equipment was used for the study. First, the EGFR wild-type (0.468 μg/μL, Active MOTIF, cat: 31165) and the EGFR mutant type (672-1210, L858R, Active MOTIF, cat: 81200) were covalently immobilized at densities of 2000 response units onto a CM5 sensor chip. Then, 3d dissolved in DMSO was injected at concentrations between 0.064 and 5,000 nM at 25°C. […] During the interaction, the changes in the refractive index were measured in real time to allow the plotting of the results of interaction as response units versus time. The interaction results were analyzed with BIA evaluation 3.0 software.

[12] = tested on: KYSE450 cells (caspase-3, cytochrome-c, PARP); experiment: Western blot of apoptosis-related marker proteins; type: cell-based, human; conditions: KYSE450, 4 μM, 6, 12 and 24 h vs control at 0 h
Protocol: KYSE450 cells (3 × 10^5/well) were incubated overnight in 10 square petri dishes and then treated with compound 3d at 4 μM for 0, 6, 12, and 24 h. Cells treated with 0.1% DMSO were used as control. Then, the cells were harvested, and total proteins were extracted. […] The membrane was blocked for 1 h, then incubated overnight with a 1:1000 dilution of anti-caspase-3, anti-cytochrome-c, and anti-PARP, or 1 : 3,000 dilution of anti-β-action primary antibody at 4°C. Finally, 1 : 3,000 anti-rabbit secondary antibodies were incubated for 2 h at room temperature. Protein bands were developed by chemiluminescence.

HCC827 cells [13] = experiment: Plate clone formation assay; type: cell-based, human; conditions: HCC827, 2.5, 5 and 10 µM, 10 days
Protocol: (§2) Cells were seeded in 6-well plates with a density of 200 cells/well and cultured overnight for attachment. […] Medium with or without compounds was changed every 48 h. When colony formation was visible, the medium was discharged. Then, the colonies were washed with cold PBS, fixed with 4% paraformaldehyde (PFA) for at least 30 min, and then stained with 0.2% crystal violet solution in 100% ethanol for 20 min.

HCC827GR cells [14] = experiment: Plate clone formation assay; type: cell-based, human; conditions: HCC827GR, 2.5, 5 and 10 µM, 10 days
Protocol: as §2

KYSE450 cells [15] = experiment: Plate clone formation assay; type: cell-based, human; conditions: KYSE450, 2.5, 5 and 10 µM, 10 days
Protocol: as §2

KYSE450TR cells [16] = experiment: Plate clone formation assay; type: cell-based, human; conditions: KYSE450TR, 2.5, 5 and 10 µM, 10 days
Protocol: as §2

COCCOc1cc2ncnc(Nc3cccc(-c4cn(Cc5cc(Br)cc(Br)c5)nn4)c3)c2cc1OCCOC [Compound 3d, [6,7-Bis-(2-Methoxy-Ethoxy)-Quinazolin-4-yl]-{3-[1-(3,5-Dibromo-Benzyl)-1H-(1,2,3)Triazol-4-yl]-Phenyl}-Amine]
IC50 (KYSE70 cells): 5.43 ± 0.21 µM | IC50 (KYSE410 cells): 6.91 ± 0.4 µM | IC50 (KYSE450 cells [1]): 4.23 ± 0.19 µM | IC50 (H1650 cells): 2.99 ± 0.13 µM | IC50 (HCC827 cells [2]): 8.17 ± 0.42 µM | IC50 [3]: > 50 µM | IC50 (KYSE70TR cells): 7.17 ± 0.73 µM | IC50 (KYSE410TR cells): 7.91 ± 0.61 µM | IC50 (KYSE450TR cells [4]): 10 ± 0.75 µM | IC50 (H1650TR cells): 5.76 ± 0.33 µM | IC50 (HCC827GR cells [5]): 2.38 ± 0.17 µM | proportion of apoptotic cells (KYSE450 cells [6]; KYSE450, 5 μM): 24.50% | proportion of apoptotic cells (KYSE450 cells [6]; KYSE450, 10 μM): 69.64% | proportion of apoptotic cells (KYSE450TR cells [7]; 5 μM): 44.12% | proportion of apoptotic cells (KYSE450TR cells [7]; 10 μM): 48.77% | ratio of cells in G0/G1 phase (KYSE450 cells [8]; KYSE450, 3.5 μM): 57.83% | ratio of cells in G2/M phase (KYSE450 cells [8]; KYSE450, 3.5 μM): 16.5% | ratio of cells in S phase (KYSE450 cells [8]; KYSE450, 3.5 μM): 25.67% | ratio of cells in G0/G1 phase (KYSE450 cells [8]; KYSE450, 7 μM): 56.56% | ratio of cells in G2/M phase (KYSE450 cells [8]; KYSE450, 7 μM): 18.74% | ratio of cells in S phase (KYSE450 cells [8]; KYSE450, 7 μM): 24.7% | ratio of cells in G0/G1 phase (KYSE450 cells [8]; KYSE450, 14 μM): 60.37% | ratio of cells in G2/M phase (KYSE450 cells [8]; KYSE450, 14 μM): 15.47% | ratio of cells in S phase (KYSE450 cells [8]; KYSE450, 14 μM): 24.16% | ratio of cells in G0/G1 phase (KYSE450 cells [8]; KYSE450, 28 μM): 55.21% | ratio of cells in G2/M phase (KYSE450 cells [8]; KYSE450, 28 μM): 20.66% | ratio of cells in S phase (KYSE450 cells [8]; KYSE450, 28 μM): 24.13% | cell cycle phase in which cells are arrested (KYSE450 cells [8]; KYSE450, 3.5-28 μM): G0/G1 phase | ratio of cells in G0/G1 phase (KYSE450TR cells [9]; 3.5 μM): 34.92% | ratio of cells in G2/M phase (KYSE450TR cells [9]; 3.5 μM): 22.86% | ratio of cells in S phase (KYSE450TR cells [9]; 3.5 μM): 42.22% | ratio of cells in G0/G1 phase (KYSE450TR cells [9]; 7 μM): 37.56% | ratio of cells in G2/M phase (KYSE450TR cells [9]; 7 μM): 23.94% | ratio of cells in S phase (KYSE450TR cells [9]; 7 μM): 38.50% | ratio of cells in G0/G1 phase (KYSE450TR cells [9]; 14 μM): 43.34% | ratio of cells in G2/M phase (KYSE450TR cells [9]; 14 μM): 23.39% | ratio of cells in S phase (KYSE450TR cells [9]; 14 μM): 33.27% | ratio of cells in G0/G1 phase (KYSE450TR cells [9]; 28 μM): 41.19% | ratio of cells in G2/M phase (KYSE450TR cells [9]; 28 μM): 27.28% | ratio of cells in S phase (KYSE450TR cells [9]; 28 μM): 31.53% | cell cycle phase in which cells are arrested (KYSE450TR cells [9]; 3.5-28 μM): G2/M phase | Rmax [10]: 12.9 RU | Kd ([10]; 25°C): 6.88 µM and 6.89 µM | Kd ([11]; immobilized mutant EGFR (L858R), 25°C): 3.12 µM and 3.13 µM | Rmax ([11]; immobilized mutant EGFR (mEGFR)): 21.16 RU | caspase-3 protein level [12]: higher than those in the control at 0 h | cleaved PARP protein level [12]: higher than those of the control at 0 h | cytochrome-c protein level [12]: higher than those in the control at 0 h | inhibition effect on colony formation (HCC827 cells [13]): more significant than that of erlotinib | inhibition effect on colony formation (HCC827GR cells [14]): more significant than that of erlotinib | inhibition effect on colony formation (KYSE450 cells [15]): more significant than that of erlotinib | inhibition effect on colony formation (KYSE450TR cells [16]): more significant than that of erlotinib
